From US6958318B2, “Recombinant bacterial cells for delivery of PNP to tumor cells” (The UAB Research Foundation, priority 1993, dated 2005)
“And” between values parts separate entries of the source, which are not always exact repeats. Equal values may be shown once. “Also recorded” adds a separate entry of the source.

Experiments:
[1] = system: wild-type 16/C tumors; assay: Wild-type 16/C tumors in B6C3F1 mice; format: in vivo
Description: Transduced 16/C cells were implanted in mice by subcutaneous injection of approximately 10^6 cells harvested from the cultures of stably transduced 16/C cells described above. The mice were examined visibly for tumor growth and those with developing tumors were maintained. To prepare mice for use in the in vivo experiments, the tumors were removed from mice with significant tumor growth and cut into 30-60 mg pieces. One 30-60 mg piece of the tumor was subcutaneously implanted into the subaxillary region of each female B6C3F1 mouse. The tumors were allowed to develop and mice with tumors of 100 mm^3 were used.
Six mice (B6C3F1) per group with established wild type 16/C tumors were treated with an aqueous control solution, MeP-dR (100 mg/kg IP qd×3d) or 2-fluoro-arabinofuranosyladenine monophosphate (F-araAMP) (100 mg/kg IP, […]). The wild type tumors grew rapidly in the presence or absence of either of the prodrugs. […] (Table III, Wild-type 16/C treatment).

[2] = target: T1, E. coli PNP (Escherichia coli, UniProt P0ABP8); format: cell-based; details: 160 μM, 5 day period, E. coli PNP transfected cells
T1 sequence (P0ABP8 2-239): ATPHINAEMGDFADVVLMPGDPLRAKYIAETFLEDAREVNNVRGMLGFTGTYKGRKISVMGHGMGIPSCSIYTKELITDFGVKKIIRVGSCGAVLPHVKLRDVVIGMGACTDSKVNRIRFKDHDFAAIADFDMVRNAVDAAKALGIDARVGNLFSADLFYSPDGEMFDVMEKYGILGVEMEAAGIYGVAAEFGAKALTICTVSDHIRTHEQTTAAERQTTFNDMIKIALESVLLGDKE

[3] = system: 16/C breast cancer cells; assay: Bystander killing, mixed wild type and PNP-transduced 16/C cells; format: cell-based, murine; details: 20 μg/ml
[4] = system: B16 melanoma cells; assay: Bystander killing, mixed wild type and PNP-transduced B16 cells; format: cell-based, murine; details: 20 μg/ml
[5] = system: D54-PNP tumors; assay: E. coli PNP-transduced D54 glioma tumors in nude mice; format: in vivo
Description: Female athymic nude mice (nu/nu) were implanted sc with 2×10^7 cells of either D54 parental tumor cells (D54-wt) or D54 tumor cells that had been transduced with the E. coli PNP (D54-PNP). After the tumors had grown to approximately 150 mg, they were treated ip with either vehicle or 67 mg/kg of MeP-dR (IP) once a day for 3 days (days 6, 7 and 8 after implantation). The tumor sizes were measured twice a week after treatment.
A confirmation experiment was set up exactly as described above, except that animals were treated with two doses of MeP-dR (45 and 67 mg/kg) (FIGS. 10 and 11). The results of this experiment were similar (Table V). There were 8 of 10 complete regressions in mice bearing the D54-PNP tumors that were treated with 67 mg/kg of MeP-dR. In 4 mice the tumors subsequently returned and grew. There were still 4 of 10 tumor-free survivors 60 days after the treatment had stopped. […] There were 2 of 10 complete regressions and 3 partial responses. […] The delay in the time required to double twice due to treatment with MeP-dR was 5 to 6 days in the non-transduced tumors and greater than 24 days in transduced tumors. In this experiment, the growth rate of the D54-PNP tumors was considerably slower than it was in the first experiment. There was no change in the growth rate of the D54-wt tumors. The reason for the slow growth rate of the D54-PNP tumors in this experiment is not known. […] (In other words, if a tumor was too small to measure, it was not included in the average size). This means that the overall tumor regressions in the D54 PNP group are actually much more pronounced than they appear in FIGS. 8-11.

[6] = target: T1, E. coli PNP; format: biochemical
[7] = target: T2, human PNP (Homo sapiens, UniProt P00491); assay: Cleavage of purine analog nucleosides by human PNP (HPLC); format: biochemical
T2 sequence (P00491 1-289): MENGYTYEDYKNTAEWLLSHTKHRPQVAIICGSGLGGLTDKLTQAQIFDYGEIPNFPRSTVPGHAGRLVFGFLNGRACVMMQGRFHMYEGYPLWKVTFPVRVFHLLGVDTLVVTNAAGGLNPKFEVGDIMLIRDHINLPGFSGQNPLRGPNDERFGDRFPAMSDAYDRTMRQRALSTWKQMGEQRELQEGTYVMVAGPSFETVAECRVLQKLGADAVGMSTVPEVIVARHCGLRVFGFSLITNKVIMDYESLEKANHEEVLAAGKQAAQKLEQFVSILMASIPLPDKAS

[8] = IP for three days, MeP-dR 100, F-araAMP 500 mg/kg/day

## Cc1ncnc2c1ncn2[C@H]1C[C@H](O)[C@@H](CO)O1 [MeP-dR, 9-(β-D-2-deoxyerythropentofuranosyl)-6-methylpurine]
[1]; [8]
  Complete Regressions/Total: 0/6
  Day delay (Treated-control): 2.4 days
  Nonspecific Deaths/Total: 0/6
[1]; wild type 16/C
  Delay in tumor growth, in words: no statistically significant delay in tumor growth
[2]
  MeP-dR converted to MeP in culture medium: More than 75%
[3]
  Toxicity to untransduced 16/C cells: not toxic
[3]; mixed culture
  Cell proliferation when as few as 2% of cells express E. coli PNP: completely eliminated cell proliferation; also recorded: Complete abrogation of cellular proliferation
[3]; LDH release assay
  Share of cells expressing PNP required for total population cell killing: 1%
[4]
  Toxicity to untransduced B16 cells: not toxic
[4]; mixed culture
  Cell proliferation when as few as 2% of cells express E. coli PNP: completely eliminated cell proliferation; also recorded: Complete abrogation of cellular proliferation
[4]; LDH release assay
  Share of cells expressing PNP required for total population cell killing: 10%
[5]; 67 mg/kg, regardless of tumor implanted
  Loss of weight in treated animals: little or no loss of weight
[5]; 45 or 67 mg/kg
  Effect on E. coli PNP expressing D54 tumors, in words: caused regression
[5]; Table IV, 67 mg/kg
  Days Delay (T-C): >39 days
  Doubling time: >56
  Nonspecific Deaths/Total: 0/6
  Regressions Partial: 0/6
[5]; Table IV, 67 mg/kg IP once a day for three days, 67 mg/kg
  Regressions Complete: 6 of 6 and 6/6
[5]; Table IV, 67 mg/kg, followed 65 days, 67 mg/kg
  Tumor-free Survival: Four and 4/6
[5]; Table V, 45 mg/kg
  Days Delay (T-C): >24 days
  Doubling time: >54
  Nonspecific Deaths/Total: 0/10
  Regressions Partial: 3 and 3/10
  Tumor-free Survival: no tumor-free survivors and 0/10
[5]; Table V, 45 mg/kg IP once a day for three days, 45 mg/kg
  Regressions Complete: 2 of 10 and 2/10
[5]; Table V, 67 mg/kg
  Days Delay (T-C): >25 days
  Doubling time: >55
  Nonspecific Deaths/Total: 1/10
  Regressions Partial: 1/10
[5]; Table V, 67 mg/kg IP once a day for three days, 67 mg/kg
  Regressions Complete: 8 of 10 and 8/10
[5]; Table V, 67 mg/kg, 60 days after treatment stopped, 67 mg/kg
  Tumor-free Survival: 4 of 10 and 4/10
[5]; previous studies
  Activity against D54 glioma tumors expressing the E. coli PNP gene: good activity
[5]; transduced tumors, 45 and 67 mg/kg
  Delay in the time required to double twice: greater than 24 days
[6]
  Percent of substrate cleaved by E. coli PNP, 100 μM: 91(86)45(21) Percent and 93(87)29(24) Percent
  Percent of substrate cleaved by E. coli PNP, 1 mM: 91(86)45(21) Percent and 93(87)29(24) Percent
  Substrate quality for bacterial (E. coli) PNP: good substrates
[7]
  Percent of substrate cleaved by Human PNP, 100 μM: 0(86) Percent and 0%
  Percent of substrate cleaved by Human PNP, 1 mM: 0(47) Percent and 0%
  Substrate quality for mammalian (human) PNP: poor substrates
